Measurements taken from publication PMC7229567, “Comparative Pharmacokinetics of Geniposidic Acid, Genipin-1-β-Gentiobioside, Geniposide, Genipin, and Crocetin in Rats after Oral Administration of Crude Gardeniae Fructus and Its Three Processed Products Using LC-MS/MS” (Evidence-based Complementary and Alternative Medicine : eCAM, 2020).
Read-outs that look alike come from different tables or passages of the source.

Key:
[1] = Stability of the analytes in rat plasma QC samples under storage conditions; type: in vitro ADME; details: for Freeze-thaw cycles Remain: three freeze-thaw cycles
Protocol: Quality control (QC) samples containing geniposidic acid, geniposide, genipin-1-β-gentiobioside, genipin, and crocetin were prepared at LLOQ (10 ng/mL), low (30 ng/mL), medium (300 ng/mL), and high concentrations (3000 ng/mL), spiking with appropriate standard solutions with blank plasma to establish calibration curve and method validation. The samples were prepared by the same procedures for plasma samples as described below. The stability of 5 components in the plasma was obtained by evaluating QC samples at four concentration levels with three replicates in different conditions. The QC samples were kept at room temperature for 12 h to determine the short-term stability. Freeze-thaws stability was tested after three freeze-thaw (−80°C at room temperature) on three consecutive days. Long-term stability was tested by evaluating QC samples stored at −80°C for one month. The stability of the five components in rat plasma was determined by evaluating QC samples stored at different temperature and timing conditions. All the components were stable in the autosampler for 24 h, after three freeze-thaw cycles and at a month at −80°C.

[2] = Pharmacokinetics in rat plasma after oral administration of CGF, SGF, GCGF and GIGF extracts (LC-MS/MS); details: for Cmax / half-life / Tmax: male, Sprague-Dawley, rat, plasma, po, 0.75 mL/kg; for Cmax: C max; for Cmax / Tmax / C max / T 1/2 / T max / AUC(0–t24) ratio relative to CGF: rat plasma; for Cmax / half-life / Tmax / C max / T 1/2 / T max: n = 6, mean ± SD; for half-life: T 1/2, rat plasma; for Tmax: T max; for AUC(0–t24) ratio relative to CGF: oral
Text: (§1) The LC-ESI-MS/MS system is composed of an Agilent 1200 series LC system (Agilent Technologies, USA) including a binary pump, a vacuum degasser unit, an autosampler, and an API 3200 triple quadrupole mass Spectrometer with an ESI source (Concord, Ontario, Canada). Data was acquired by Analyst 1.4.2 software (AB MDS Sciex).
(§2) The Agilent Eclipse plus C18 (4.6 × 100 mm, 1.8 μm) column with a guard column was used to separate multiple ingredients. The mobile phases were methanol (A) and water (B) with a gradient elution of 3–36% A at 0–3 min, 36–36% A at 3–15 min, 36–97% A at 15–16 min, and 97–97% A at 16–26 min, then back from 97% to 3% balanced for 10 min. The flow rate was set at 0.3 mL/min and the column temperature was set at 30°C. The injection volume was 5 μL.
(§3) The detection was operated in Multiple Reaction Monitoring (MRM) mode. The source parameters were as follows: curtain gas, collision gas, ion spray voltage, temperature, ion source gas 1, and ion source gas 2 were set at 20 psi, 5 psi, 5500 V, 450°C, 40 psi, and 40 psi, respectively. Nitrogen was the only gas used in the experiment.
(§4) A total of 24 male Sprague-Dawley rats (weight: 220–250 g) were obtained from animal center of Tianjin University of Traditional Chinese Medicine (Tianjin, China). Those rats were randomly divided into four groups (CGF, SGF, GCGF, and GIGF groups) and were housed in an environmentally controlled room (temperature 20–25°C, humidity 60 ± 5%). The rats were allowed free accessibility to food and water in the first week. They were fasted for 12 h before the experiment with water taken freely. The animal experiments were according to the Guidelines for the Care and Use of Laboratory Animals and were approved by the Animal Ethics Committee of Tianjin University of Traditional Chinese Medicine. The rats were randomly divided into four groups. Six rats in each group were separately given single dose of 0.75 mL/kg (0.9 g·kg herbal medicine) extract solution of four kinds of GFs vial oral administration. Blood samples (about 300 μL) were collected at 0, 0.08, 0.25, 0.5, 1, 2, 4, 6, 8, 10, 12, 14, and 24 h. The blood samples were collected in heparinized tubes and immediately centrifuged at 6000 rpm for 10 min at 4°C. The plasma samples were stored at −80°C until analysis.
(§5) The plasma sample (100 μL) was spiked with 20 μL IS working solution and 10 μL formic acid in an Eppendorf tube. Samples were vortex for 30 s, and then 1 mL acetonitrile was added to precipitate protein. Then samples were vortexed for 2 min and the tubes were centrifuged at 14000 rpm for 10 min. The upper organic phase was transferred into a new tube and evaporated to dryness under a flow of nitrogen gas. The residue was reconstituted with 50% methanol 100 μL. After centrifuging at 14000 rpm for 10 min, the supernatant was transferred into an autosampler vial and a volume of 5 μL was injected into the HPLC-ESI-MS/MS for analysis.
(§6) The pharmacokinetic parameters were calculated using a Drug and Statistics 1.0 (DAS 1.0) software (Medical College of Wannan, China). The pharmacokinetic parameters included time of maximum concentration (Tmax), maximum plasma concentration (Cmax), elimination half-life (T1/2), and area under concentrations curve (AUC0–t and AUC0–∞). All values were expressed as mean ± SD. A paired t test was used to test the difference among these groups.

[3] = in vivo, po
Text: as §1, §2, §3, §4, §5, §6

[4] = single oral dose of CGF extract 0.75 mL/kg
[5] = single oral dose of GCGF extract 0.75 mL/kg
[6] = single oral dose of GIGF extract 0.75 mL/kg
[7] = single oral dose of SGF extract 0.75 mL/kg

At −80°C for a month Remain ([1]; 10 ng/mL) [%]	Autosampler for 24 h Remain ([1]; 10 ng/mL) [%]	Freeze-thaw cycles Remain ([1]; 10 ng/mL) [%]	At −80°C for a month Remain ([1]; 30 ng/mL) [%]	Autosampler for 24 h Remain ([1]; 30 ng/mL) [%]	Freeze-thaw cycles Remain ([1]; 30 ng/mL) [%]	At −80°C for a month Remain ([1]; 300 ng/mL) [%]	Autosampler for 24 h Remain ([1]; 300 ng/mL) [%]	Freeze-thaw cycles Remain ([1]; 300 ng/mL) [%]	At −80°C for a month Remain ([1]; 3000 ng/mL) [%]	Autosampler for 24 h Remain ([1]; 3000 ng/mL) [%]	Freeze-thaw cycles Remain ([1]; 3000 ng/mL) [%]	Cmax [2, 4] [ng/mL]	Cmax [2, 5] [ng/mL]	Cmax [2, 7] [ng/mL]	half-life [2, 4] [h]	half-life [2, 7] [h]	Tmax [2, 4] [h]	Tmax [2, 5] [h]	Tmax [2, 7] [h]	SMILES	further results
98.4	97.9	102	101	99.9	95.3	105	96.3	98.6	103	98.9	106	165 ± 52.9	163 ± 76.4	153 ± 81.9	41.6 ± 57.6	56.2 ± 43	7.3 ± 3.93	6.43 ± 5.02	6.61 ± 4.05	CC(/C=C/C=C(\C)C(=O)O)=C\C=C\C=C(C)\C=C\C=C(/C)C(=O)O [Crocetin]	Cmax [2, 6]: 91.2 ± 35.6 ng/mL; half-life [2, 5]: 12.8 ± 6.64 h; half-life [2, 6]: 31.8 ± 29.3 h; Tmax [2, 6]: 1.29 ± 2.31 h
95.8	99.3	104	96.3	100	105	95.1	101	101	95.1	90.7	103	–	–	–	–	–	–	–	–	COC(=O)C1=CO[C@@H](O[C@@H]2O[C@H](CO[C@@H]3O[C@H](CO)[C@@H](O)[C@H](O)[C@H]3O)[C@@H](O)[C@H](O)[C@H]2O)[C@@H]2C(CO)=CC[C@H]12 [Genipin-1-β-gentiobioside]	C max [2, 4]: 149.90 ± 132.07 ng/mL; T 1/2 [2, 4]: 0.72 ± 0.25 h; T max [2, 4]: 0.55 ± 0.33 h; C max [2, 5]: 102.92 ± 58.15 ng/mL; T 1/2 [2, 5]: 0.78 ± 0.32 h; T max [2, 5]: 0.78 ± 0.20 h; C max [2, 6]: 62.94 ± 16.81 ng/mL; T 1/2 [2, 6]: 0.91 ± 0.36 h; T max [2, 6]: 1.05 ± 0.37^∗# h; C max [2, 7]: 79.08 ± 39.47 ng/mL; T 1/2 [2, 7]: 0.61 ± 0.18 h; T max [2, 7]: 0.61 ± 0.31 h
108	95.4	–	103	104	95.3	105	90.6	95.9	101	92.6	100	76.4 ± 40.9	68.5 ± 19.4	98 ± 41.8	3.42 ± 1.94	1.39 ± 0.88	1.11 ± 0.4	1.1 ± 0.52	1 ± 0.55	COC(=O)C1=CO[C@@H](O)[C@@H]2C(CO)=CC[C@H]12 [Genipin]	Detection in rat plasma ([2]; after administration of the GIGF extract, LLOQ 10 ng/mL): not detected; half-life [2, 5]: 1.39 ± 0.98 h
107	94.7	96.3	98.0	96.4	101	106	96.4	107	99.9	96.7	108	1020 ± 450	670 ± 432	398 ± 108	2.52 ± 0.64	2.93 ± 3.45	3.33 ± 1.63	3.33 ± 3.43	1.78 ± 0.44	O=C(O)C1=CO[C@@H](O[C@@H]2O[C@H](CO)[C@@H](O)[C@H](O)[C@H]2O)[C@@H]2C(CO)=CC[C@H]12 [Geniposidic acid]	AUC(0–t24) ratio relative to CGF ([2]; GCGF vs CGF (CGF = 1)): 0.39; AUC(0–t24) ratio relative to CGF ([2]; GIGF vs CGF (CGF = 1)): 0.15; AUC(0–t24) ratio relative to CGF ([2]; SGF vs CGF (CGF = 1)): 0.22; Cmax [2, 6]: 272 ± 164 ng/mL; half-life [2, 5]: 1.72 ± 0.69 h; half-life [2, 6]: 1.5 ± 0.42 h; Tmax [2, 6]: 2.4 ± 1.26 h
–	–	–	–	–	–	–	–	–	–	–	–	–	–	–	–	–	–	–	–	CC(/C=C/C=C(\C)C(=O)O[C@@H]1O[C@H](CO)[C@@H](O)[C@H](O)[C@H]1O)=C\C=C\C=C(C)\C=C\C=C(/C)C(=O)O[C@@H]1O[C@H](CO[C@@H]2O[C@H](CO)[C@@H](O)[C@H](O)[C@H]2O)[C@@H](O)[C@H](O)[C@H]1O [crocin II]	Detection in rat plasma ([2]; plasma samples after oral administration of GF extracts): not detected
–	–	–	–	–	–	–	–	–	–	–	–	–	–	–	–	–	–	–	–	CC(/C=C/C=C(\C)C(=O)O[C@@H]1O[C@H](CO[C@@H]2O[C@H](CO)[C@@H](O)[C@H](O)[C@H]2O)[C@@H](O)[C@H](O)[C@H]1O)=C\C=C\C=C(C)\C=C\C=C(/C)C(=O)O[C@@H]1O[C@H](CO[C@@H]2O[C@H](CO)[C@@H](O)[C@H](O)[C@H]2O)[C@@H](O)[C@H](O)[C@H]1O [crocin I]	Detection in rat plasma [3]: not detected

SMILES	At −80°C for a month Remain ([1]; 10 ng/mL) [%]	Autosampler for 24 h Remain ([1]; 10 ng/mL) [%]	Freeze-thaw cycles Remain ([1]; 10 ng/mL) [%]	At −80°C for a month Remain ([1]; 30 ng/mL) [%]	Autosampler for 24 h Remain ([1]; 30 ng/mL) [%]	Freeze-thaw cycles Remain ([1]; 30 ng/mL) [%]	At −80°C for a month Remain ([1]; 300 ng/mL) [%]	Autosampler for 24 h Remain ([1]; 300 ng/mL) [%]	Freeze-thaw cycles Remain ([1]; 300 ng/mL) [%]	At −80°C for a month Remain ([1]; 3000 ng/mL) [%]	Autosampler for 24 h Remain ([1]; 3000 ng/mL) [%]	Freeze-thaw cycles Remain ([1]; 3000 ng/mL) [%]	Cmax [2, 4] [ng/mL]	Cmax [2, 5] [ng/mL]	Cmax [2, 7] [ng/mL]	half-life [2, 4] [h]	half-life [2, 7] [h]	Tmax [2, 4] [h]	Tmax [2, 5] [h]	Tmax [2, 7] [h]	further results
COC(=O)C1=CO[C@@H](O[C@@H]2O[C@H](CO)[C@@H](O)[C@H](O)[C@H]2O)[C@@H]2C(CO)=CC[C@H]12 [Geniposide]	99.2	102	97.5	98.4	95.1	92.8	94.8	96.3	93.1	92.8	91.6	95.0	1070 ± 598	581 ± 241	455 ± 160	3.21 ± 2.31	1.61 ± 0.63	1.54 ± 1.3	0.86 ± 0.13	0.89 ± 0.72	Cmax [2, 6]: 212 ± 109 ng/mL; half-life [2, 6]: 1.08 ± 0.45 h; Tmax [2, 6]: 1.3 ± 0.48 h; T 1/2 [2, 5]: 1.44 ± 0.53^∗ h
